Laboratory results reported in US7790896B2, “RNA-selective probes for live cell imaging of nuclear structure and function” (New York University, priority 2006, dated 2010).

Assays:
[1] = test system: 3T3 cells; assay: Cytotoxicity test, MTS assay; assay type: cell-based
Protocol: Dye DMSO stock solutions were diluted by fresh medium into four desired concentrations ([…], 13.5 μM, 10 μM and 5 μM). Cells were cultured in 96-well plate for 12 hours before experiments. The cell medium was then exchanged with different concentrations of dye medium solutions. Cells were incubated at 37° C. in 5% CO2 for 5, 15, or 24 hours before viability by MTS assay was measured. As for the MTS assay, briefly, 3-(4,5-dimethylthiazol-2-yl)-5-(3-carboxymethoxyphenyl)-2-(4-sulfophenyl)-2H-tetrazolium (MTS) and phenazine methosulfate (PMS) were mixed at a ratio of 20:1 right before the experiments. The cell dye medium solution was exchanged with 80 μL of fresh medium followed by the addition of 20 μL MTS/PMS solution to each well. 100 μM hydrogen peroxide was used as positive control. The cell plates were then incubated at 37° C. in 5% CO2 for 2 hours. Absorbance was measured at 490 nm. The absorbance measured for an untreated cell population under the same experimental conditions was used as the reference point to establish 100% cell viability. Duplicated experiments have been tested.
(20 μM, 13.5 μM, 10 μM, and 5 μM) in A549 and 3T3 cells and the cytotoxicity was measured using standard MTS assay after 5, 15, or 24 hours incubation (FIG. 5A). Generally, there was no toxicity (defined by greater than 50% cell death) associated with any of the dyes at the working concentration (5 μM) after 24 hours incubation. In A549 cell, all three dyes were non-toxic after 24 hours incubation at all concentrations. In 3T3 cells, E144 was non-toxic, but 20 μM of E36 was toxic after 24 hours incubation and 20 μM F22 was toxic after 15 hours incubation. Since the compounds bind to RNA, it is not surprising to see some signs of toxicity at higher concentrations, especially after one doubling period (approximately 22 hours for A549 cells and 20-25 hours for 3T3 cells). […] Additional studies are required to determine if the compounds perturb nucleolar dynamics throughout the cells cycle.

[2] = test system: RNA (16S- and 23S-ribosomal from E. coli) vs. DNA (salmon testes); assay: RNA vs. DNA selectivity titration in solution; assay type: binding; conditions: E36 5 μM, E144 10 μM, F22 10 μM; nucleic acid 0.195 to 200 μg/mL
Protocol: Samples containing 50 μg/mL RNA in TE buffer with an increasing concentration of compound from 0.15 μM to 10 μM. Shown here is the intensity increase recorded at the emission λmax wavelength of each dye. […] The samples contain fixed concentration of dyes (E36: 5 μM; E144: 10 μM; F22: 10 μM) in TE buffer with an increasing concentration of RNA or DNA from 0.19 μg/mL to 200 μg/mL. Data points were in duplicated in individual experiments, and error bars represent standard deviation.
The fluorescence spectra data in the primary screening and selected dyes titration assay study was obtained by Gemini XS plate reader. RNA solution was prepared right before the assay experiments to avoid possible degradation and contamination. In the primary screening, 1 mg/mL RNA (type VI from torula yeast) buffer solution was used. Point scans were carried out first using five Ex/Em point sets ([…], 400/500, 450/550, 500/600, 550/650 nm). Spectra scans were then carried out for the selected dyes. Excitation wavelengths were set at 350 nm, 400 nm, 450 nm, 500 nm, and 550 nm and the emission wavelengths were scanned. RNA (16S- and 23S-ribosomal from E. coli) and DNA (salmon testes) titration experiments and quantum yield/extinction coefficient determination for the three best dyes were carried out by the plate reader as well. Excitation λmax obtained from F-2500 Hitachi Fluorophotometer was used. Absorbance wavelength was determined by SpectraMax Plus^384 absorbance plate reader. […] was chosen as standard and 480 nm was used as excitation wavelength in the scanning for quantum yield determination.
A set of solution assay experiments were then carried out to investigate the dyes' selectivity to bind RNA vs. DNA in vitro. With a fixed concentration of dye (E36 5 μM, E144 10 μM, and F22 10 μM), the fluorescent intensity at various nucleic acid concentrations (0.195 μg/mL to 200 μg/mL) was determined at the appropriate emission λmax wavelength. SYTO®RNASelect (5 μM) and Hoechst 33258 (5 μM) dyes were used as standards for RNA selective and DNA selective dyes (FIG. 3B).

[3] = test system: Fixed-permeabilized Hela cells; assay: DNase and RNase digest test; assay type: cell-based, human; conditions: dye 50 μM, 2 hours; for Fluorescence after RNase digest: 25 μg/mL DNase-Free RNase; for Fluorescence after DNase digest: 30 μg/mL DNase
Protocol: Cells were first fixed using cold (−4° C.) pure methanol for 1 minute at ambient temperature. The cell membrane was then permeabilized by immersion in 1% Triton X-100 for 2 minutes. After rinsing with PBS twice, 100 μL of 50 μM dye PBS solution was added to three adjacent wells. Cells were then incubated in this dye PBS solution for 15 minutes in ambient temperature before being rinsed with clean PBS twice. 100 μL clean PBS (as control experiment), 30 μg/mL DNase (Sigma), or 25 μg/mL DNase-Free RNase (GE) was added to the three adjacent wells and incubated at 37° C. in 5% CO2 for 2 hours. Cells were rinsed with clean PBS twice before imaging. For each dye test, the fluorescent images were obtained using equal exposure time for control, DNase and RNase experiments. DAPI (10 μM) in PBS and SYTO®RNASelect (5 μM) in PBS solution were used for dual staining experiments. Duplicate experiments have been tested.
To further confirm that the compounds selectively bind RNA, a deoxyribonuclease (DNase) and ribonuclease (RNase) digest test was performed. In DNase digest, only the DNAs in the cell would be hydrolyzed. By contrast, in RNase digest, only RNAs would be hydrolyzed. Fixed-permeabilized Hela cells were used in this experiment and DAPI and SYTO®RNASelect were used as control dyes (FIG. 6). […] Still, its higher RNA-selective binding in live cell might be due to the complicated in vivo live cell environment, which may preferably direct this dye to nucleoli.

Row | Structure (SMILES) | Cytotoxicity (toxic = greater than 50% cell death) ([1]; 20 μM, 15 hours incubation) | Fluorescent intensity response to RNA vs. DNA [2] | Fluorescence after RNase digest [3] | Fluorescence after DNase digest [3] | Cytotoxicity (toxic = greater than 50% cell death) ([1]; 20, 13.5, 10 and 5 μM, 5, 15 or 24 hours) | Cytotoxicity (toxic = greater than 50% cell death) ([1]; 20 μM, 24 hours incubation)
1 | COc1ccc2c(ccc(/C=C/c3ccc(N(C)C)cc3)[n+]2C)c1 [Dye F22] | toxic | higher response to RNA than to DNA | overall decrease in intensity | nucleolar stain remained bright |  | 
2 | COc1cc(OC)c(/C=C/c2ccc3ccccc3[n+]2C)c(OC)c1 [Dye E144] |  | almost same binding affinity to both RNA and DNA | not detectable | not detectable | non-toxic | 
3 | C[n+]1c(/C=C/c2c[nH]c3ccccc23)ccc2ccccc21 [Dye E36] |  | higher response to RNA than to DNA | dramatically diminished | stayed almost the same |  | toxic
